Measurements reported in patent US20040157280A1, “Antibody mediated ozone generation” (priority 2001, published 2004).
“Also recorded” adds a separate entry of the source.

Columns and labels:
[1] = tested on: E. coli; assay: Bactericidal assay, E. coli (strain not singled out); assay type: cell-based; details: for bactericidal activity (in words): HPIX 40 μM, white light 1 h, 4° C.
Experimental: (§1) In a typical experiment, a culture of E. coli (in log phase growth, OD600=0.2-0.3) was repeatedly pelleted (3×3,500 rpm) and resuspended in PBS (pH 7.4). The PBS suspended cells were then added to glass vials and cooled to 4° C. Hematoporphyrin IX (40 μM) and antibody (20 μM) were added and the vials were either placed on a light box (visible light, 2.8 mW cm^−2) or in the dark at 4° C. and incubated for 1 h. Viability was determined by recovery of colony forming units (CFUs) on agar plates. Each experiment was performed at least in duplicate.
as §1, with “washed in PBS by pelleting” for “pelleted”, “rpm) the cells” for “rpm)”, “resuspending them” for “resuspended”

[2] = Hydrogen peroxide production by UV-irradiated antibody/protein (Amplex Red assay); assay type: biochemical; details: UV irradiation in PBS
Experimental: Antibody/Protein Irradiation. Unless otherwise stated, the assay solution (100 μl, 6.7 μM protein in PBS, pH 7.4) was added to a glass vial, sealed with a screw-cap, and irradiated with either UV (312 nm, […] Fischer-Biotech transilluminator) or visible light.
Quantitative Assay for Hydrogen Peroxide. An aliquot (20 μl) from the protein solution was removed and added into a well of a 96-well microtiter plate (Costar) containing reaction buffer (80 μl). Working solution (100 μl/400 μM Amplex Red reagent ½ units/ml horseradish peroxidase) was then added, and the plate was incubated in the dark for 30 min. The fluorescence of the well components was then measured using a CytoFluor Multiwell Plate Reader (Series 4000, PerSeptive Biosystems, Framingham, Mass.; Ex/Em: 530/580 nm). The hydrogen peroxide concentration was determined using a standard curve. All experiments were run in duplicate, and the rate is quoted as the mean of at least two measurements.
Denaturation. IgG 19G12 (100 μl, 6.7 μM) was heated to 100EC in an Eppendorf tube for 2 min. The resultant solution was transferred to a glass, screw-cap vial and irradiated with UV light for 30 min. The concentration of H2O2 was determined after 30 min.

[3] = tested on: human neutrophils (PMNs); assay: Oxidation of indigo carmine 1 by activated human neutrophils; assay type: cell-based; details: indigo carmine 30 μM, PMNs 1.5×10^7 cell/mL, phorbol myristate 1 μg/mL, 37° C.
Experimental: FIG. 20A illustrates the time course of oxidation of indigo carmine 1 (30 μM) (Δ) and formation of 2 (▪) by human neutrophils (PMNs, 1.5×10^7 cell/mL) activated with phorbol myristate (1 μg/mL) in PBS (pH 7.4) at 37° C. No oxidation of indigo carmine 1 occurs with PMNs that are not activated (data not shown). Neutrophils were prepared as previously described. Hypochlorous acid (HOCl) is an oxidant known to be produced by neutrophils.
Human neutrophils were prepared as described by M. Markert, P. C. Andrews, and B. M. Babior Methods Enzymol. 105, 358 (1984). Following activation with phorbol myristate (1 μg/mL), the neutrophils (1.5×10^7 cells/mL) produced an oxidant species that oxidatively cleaves indigo carmine 1 to isatin sulfonic acid 2 (FIG. 19 and FIG. 20B). Hypochlorous acid (HOCI) is an oxidant that is known to be produced by neutrophils.

[4] = Long-term near-UV photo-production of H2O2 with catalase cycles; assay type: biochemical
Experimental: FIG. 8A illustrates the production of H2O2 by immunoglobulins and non-immunoglobulin proteins. Assays were performed by near-UV irradiation (312 nm, 800 μW cm^−2) of individual antibody/protein samples (100 μL, 6.7 μM) in phosphate-buffered saline (PBS) [10 mM sodium phosphate, 150 mM NaCl (pH 7.4)] in a sealed glass vial on a transilluminator (Fischer Biotech) under ambient aerobic conditions at 20EC. Aliquots (10 μL) were removed at timed intervals throughout the assay. H2O2 concentration was determined by the amplex red method. […]
FIG. 8B illustrates the long-term production of H2O2 by sheep poly-IgG (6.7 μM, 200 μL). […] H2O2 concentration was measured as described in FIG. 8A. […]
FIG. 8E illustrates the long-term inhibition of antibody photo-production of H2O2 by H2O2 and complete re-establishment of activity after removal of H2O2. […] H2O2 fo rmation throughout the assay was measured by the amplex red assay. […]
FIG. 11B provides the effect of chloride ion on antibody-mediated photo-production of H2O2. […] Aliquots (10 μL) were removed throughout the assay and the H2O2 concentration determined by the amplex red assay. […]

## bovine serum albumin: bovine serum albumin
[1]
  bactericidal activity (in words): no bacterial killing

## catalase
[1]; catalase 13 mU/mL
  protection against the bactericidal activity of non-specific antibodies: complete protection; also recorded: completely attenuated the bactericidal activity

## superoxide dismutase: enzyme obtained from Sigma
[2]
  ability to reduce ^1O2 / generate H2O2 (in words): the same as irradiation of PBS alone; also recorded: do not reduce ^1O2

## O=C1/C(=C2\Nc3ccc(S(=O)(=O)O)cc3C2=O)Nc2ccc(S(=O)(=O)O)cc21 [indigo carmine 1, indigo carmine]
[3]
  isatin sulfonic acid 2 formed: 25.1 ± 0.3 µM

## chick ovalbumin: chick-egg ovalbumin from Sigma
[2]
  ability to reduce ^1O2 / generate H2O2 (in words): one of the most efficient proteins at reducing ^1O2

## N[C@@H](Cc1c[nH]c2ccccc12)C(=O)O [tryptophan]
[4]; tryptophan 20 μM
  production of H2O2 during near-UV irradiation: ca. 0.5 mole equivalents

## β-galactosidase: enzyme from Sigma; most efficient non-immunoglobulin protein at H2O2 photo-production
[4]; near-UV, from its 39 Trp residues
  H2O2 generated by photo-production: 5.9 mol eq.

## CC1=C(CCC(=O)O)c2cc3[nH]c(cc4nc(cc5[nH]c(cc1n2)c(C)c5C(C)O)C(C)=C4C(C)O)c(C)c3CCC(=O)O (stereo not drawn) [hematoporphyrin IX]
[1]
  bactericidal activity (in words): negligible bactericidal activity

B1: RNase A: ribonuclease from Amersham Pharmacia (protein, UniProt P61823 27-150, looked up)
Ribonuclease pancreatic: KETAAAKFERQHMDSSTSAASSSNYCNQMMKSRNLTKDRCKPVNTFVHESLADVQAVCSQKNVACKNGQTNCYQSYSTMSITDCRETGSSKYPNCAYKTTQANKHIIVACEGNPYVPVHFDASV
[2]
  ability to reduce ^1O2 / generate H2O2 (in words): do not reduce ^1O2
